The record followed here is ChEMBL document CHEMBL5214920, “Emerging impact of triazoles as anti-tubercular agent” (Eur J Med Chem, 2022).

Converted amounts (≈) assume the structure as drawn.

Series [1] concerns Mycobacterium tuberculosis. The series is described as follows: Antitubercular activity against Mycobacterium tuberculosis H37Rv assessed as bacterial growth inhibition measured after […] by twofold agar dilution method. Type of series: functional. Background: Agar dilution tests growth on a series of plates holding different concentrations.
The test system of series [2] is Mycobacterium tuberculosis. The series is described as follows: Antitubercular activity against Mycobacterium tuberculosis H37Rv assessed as bacterial growth inhibition by direct susceptibility assay. Type of series: functional.
Series [3] in a line: Cytotoxicity against CHO cells assessed as cell growth inhibition by MTT assay. Type of series: toxicity, cell-based, Cricetulus griseus. To be noted: chinese hamster.
Series [4] deals with Mycobacterium tuberculosis. As to the kind of experiment: Antitubercular activity against Mycobacterium tuberculosis H37Rv assessed as bacterial growth inhibition measured after 7 days by MABA method. Type of series: functional. To be noted: 168 h, time 7 day. In general terms: Resazurin is reduced to fluorescent resorufin, in cell work by metabolically active cells.
Series [5] deals with Mycobacterium tuberculosis. The series is described as follows: Potency index, ratio of ethambutol MIC to test compound MIC for antitubercular activity against Mycobacterium tuberculosis H37Rv assessed as bacterial growth inhibition. Type of series: functional.
The subject of series [6] is Mycobacterium tuberculosis. The series is described as follows: Antitubercular activity against Mycobacterium tuberculosis H37Rv ATCC 27294 assessed as bacterial growth inhibition measured after 9 days by twofold agar dilution method. To be noted: H37Rv ATCC 27294, 216 h, time 9 day. Type of series: functional.
In series [7] the test system is Mycobacterium tuberculosis. The series is described as follows: Antitubercular activity against Mycobacterium tuberculosis H37Rv assessed as reduction in relative light units at 2 ug/ml incubated for 4 hrs followed by addition of D-luciferin by luciferase based luminometer analysis relative to control. Type of series: functional. Also on record: scale not given: the % may be the effect or the level left. The note with it: dose 2 µg/ml.

In series [8] the test system is Mycobacterium tuberculosis. As to the kind of experiment: Antitubercular activity against Mycobacterium tuberculosis H37Rv assessed as bacterial growth inhibition measured after 7 days by direct susceptibility assay. In kind it is functional. To be noted: 168 h, time 7 day.
In series [9] the test system is Mycobacterium tuberculosis. As to the kind of experiment: Antitubercular activity against Mycobacterium tuberculosis mc 2 7000 assessed as bacterial growth inhibition. In kind it is functional.
In series [10] the test system is Mycobacterium tuberculosis. As to the kind of experiment: Antitubercular activity against dormant stage of Mycobacterium tuberculosis H37Ra ATCC 25177 assessed as bacterial growth inhibition by XTT assay. Type of series: functional. On the technique in general: Tetrazolium assays rely on reduction of a dye to a coloured formazan, in cell work by metabolically active cells.

Series [11] deals with Mycobacterium tuberculosis. The series is described as follows: Antitubercular activity against active stage of Mycobacterium tuberculosis H37Ra ATCC 25177 assessed as bacterial growth inhibition by XTT assay. Type of series: functional.

For orientation: MIC means the least concentration at which growth counts as inhibited. As to `O=C1CC2CN(c3ccc(N4C[C@H](Cn5ccnn5)OC4=O)cc3F)CC2C1` (some centres not stated), the MIC in series [1] came out at 0.5 µg/mL (≈ 1.3 µM).

The CC50 is the concentration that lowers cell viability or growth by half. Take `COc1c(N2CCN(C(=O)Cn3cc(CN4C(=O)C(=O)c5cc(C)ccc54)nn3)C(C)C2)c(F)cc2c(=O)c(C(=O)O)cn(C3CC3)c12` (configuration not stated): in series [2], the MIC came to 1 µg/mL (≈ 1.52 µM). The CC50 in series [3] came out at 64 µg/mL (≈ 97.3 µM).

Consider `O=C(N/N=C1\C(=O)N(Cc2ccc(Cl)cc2)c2ccccc21)c1ccc(-n2cc(-c3ccccc3)nn2)cc1O`, for which, in series [4], the MIC came to 0.39 µg/mL (≈ 0.71 µM). Besides, in series [5], the Ratio was 8.

Consider `O=C(OCc1cn(CCCc2ccccc2)nn1)c1ccc(F)cc1`, for which the MIC in [6] worked out at 3.75 µg/mL (≈ 11 µM).

`CO[C@H]1/C=C/O[C@@]2(C)Oc3c(C)c(O)c4c(O)c(c(/C=N/N5CCN(C)CC5)c(O)c4c3C2=O)NC(=O)/C(C)=C\C=C\[C@H](C)[C@H](O)[C@@H](C)[C@@H](O)[C@@H](C)[C@H](OC(C)=O)[C@@H]1C` [RIFAMPIN]: the MIC in series [4] was 0.2 µg/mL (≈ 0.243 µM); in [8] it was 0.043 µg/mL (≈ 0.0523 µM); in series [9] it was 0.12 µM (≈ 0.0988 µg/mL); in series [10] it was 0.075 µg/mL (≈ 0.0911 µM); in series [11] it was 0.074 µg/mL (≈ 0.0899 µM). For the same molecule, the Activity in series [7] was found to be 87%.
